Measurements: US7507739B2, “6-[(substituted)phenyl]triazolopyrimidines as anticancer agents” (Wyeth, priority 2003, dated 2009)

Test system: HeLa cells
Test: Cell cycle analysis with HeLa cells
Assay type: cell-based, human
Settings: 18 hr
Procedure: HeLa cells are harvested by trypsinization, washed, counted and distributed to wells of 12-well plates at 125,000 cells per well in 2 mL medium. Cells are cultured overnight. […] Cells are continued in culture for 18 hr after compound addition, then cells in each well are harvested (taking care to recover both adherent and non-adherent cells) and processed using the CycleTEST PLUS kit (Becton Dickinson Immunocytometry Systems, San Jose, Calif.). Flow cytometry is done with a FACSort instrument (Becton Dickinson).
This procedure measures the percentages of cells in a population that are in the G1, S, and G2/M phases of the cell cycle. It utilizes staining of cell nuclei with propidium iodide and analysis by flow cytometry.

In the case of `C[C@H](Nc1c(-c2c(F)cc(OCCCN(C)C)cc2F)c(Cl)nc2ncnn12)C(F)(F)F.Cl` [Example 1a, 5-chloro-6-{4-[3-(dimethylamino)propoxy]-2,6-difluorophenyl}-N-[(1S)-2,2,2-trifluoro-1-methylethyl][1,2,4]triazolo[1,5-a]pyrimidin-7-amine hydrogen chloride Salt], the “Percent in Cell Cycle Phase >4N” value (20 nM) is reported as 2%, the “Percent in Cell Cycle Phase Apop” value (20 nM) is reported as 13% and the “Percent in Cell Cycle Phase G1” value (20 nM) is reported as 54%. For the same compound, the “Percent in Cell Cycle Phase G2/M” value (20 nM) was 14%, the “Percent in Cell Cycle Phase S” value (20 nM) was 18% and the “Percent in Cell Cycle Phase >4N” value (30 nM) was 1%. The “Percent in Cell Cycle Phase Apop” value (30 nM) was 38%, the “Percent in Cell Cycle Phase G1” value (30 nM) was 35% and the “Percent in Cell Cycle Phase G2/M” value (30 nM) was 14%. For the same compound, the “Percent in Cell Cycle Phase S” value (30 nM) was 12%, the “Percent in Cell Cycle Phase >4N” value (40 nM) was 1% and the “Percent in Cell Cycle Phase Apop” value (40 nM) was 71%. For the same compound, the “Percent in Cell Cycle Phase G1” value (40 nM) was 7%, the “Percent in Cell Cycle Phase G2/M” value (40 nM) was 13% and the “Percent in Cell Cycle Phase S” value (40 nM) was 8%. For the same compound, the “Percent in Cell Cycle Phase Apop” value (40 nM, listed as example 1a) was “about 70%”, the “Percent in Cell Cycle Phase G2/M” value (40 nM, listed as example 1a) was “no increase” and the “Percent in Cell Cycle Phase >4N” value (50 nM) was 2%. For the same compound, the “Percent in Cell Cycle Phase Apop” value (50 nM) was 63%, the “Percent in Cell Cycle Phase G1” value (50 nM) was 6% and the “Percent in Cell Cycle Phase G2/M” value (50 nM) was 20%. The “Percent in Cell Cycle Phase S” value (50 nM) was 9%, the “Percent in Cell Cycle Phase >4N” value (60 nM) was 3% and the “Percent in Cell Cycle Phase Apop” value (60 nM) was 52%. For the same compound, the “Percent in Cell Cycle Phase G1” value (60 nM) was 5%, the “Percent in Cell Cycle Phase G2/M” value (60 nM) was 32% and the “Percent in Cell Cycle Phase S” value (60 nM) was 10%. The “Percent in Cell Cycle Phase >4N” value (70 nM) was 4%, the “Percent in Cell Cycle Phase Apop” value (70 nM) was 26% and the “Percent in Cell Cycle Phase G1” value (70 nM) was 3%. The “Percent in Cell Cycle Phase G2/M” value (70 nM) was 57%, the “Percent in Cell Cycle Phase S” value (70 nM) was 9% and the “Percent in Cell Cycle Phase >4N” value (80 nM) was 5%. The “Percent in Cell Cycle Phase Apop” value (80 nM) was 24%, the “Percent in Cell Cycle Phase G1” value (80 nM) was 4% and the “Percent in Cell Cycle Phase G2/M” value (80 nM) was 58%. The “Percent in Cell Cycle Phase S” value (80 nM) was 9%, the “Percent in Cell Cycle Phase >4N” value (90 nM) was 6% and the “Percent in Cell Cycle Phase Apop” value (90 nM) was 22%. The “Percent in Cell Cycle Phase G1” value (90 nM) was 5%, the “Percent in Cell Cycle Phase G2/M” value (90 nM) was 58% and the “Percent in Cell Cycle Phase S” value (90 nM) was 10%. The “Percent in Cell Cycle Phase >4N” value (100 nM) was 5%, the “Percent in Cell Cycle Phase Apop” value (100 nM) was 24% and the “Percent in Cell Cycle Phase G1” value (100 nM) was 4%. The “Percent in Cell Cycle Phase G2/M” value (100 nM) was 58%, the “Percent in Cell Cycle Phase S” value (100 nM) was 10% and the “Percent in Cell Cycle Phase >4N” value (110 nM) was 5%. The “Percent in Cell Cycle Phase Apop” value (110 nM) was 24%, the “Percent in Cell Cycle Phase G1” value (110 nM) was 6% and the “Percent in Cell Cycle Phase G2/M” value (110 nM) was 53%. For the same compound, the “Percent in Cell Cycle Phase S” value (110 nM) was 13%, the “Percent in Cell Cycle Phase >4N” value (120 nM) was 5% and the “Percent in Cell Cycle Phase Apop” value (120 nM) was 28%. The “Percent in Cell Cycle Phase G1” value (120 nM) was 6%, the “Percent in Cell Cycle Phase G2/M” value (120 nM) was 48% and the “Percent in Cell Cycle Phase S” value (120 nM) was 14%.

`CC[C@]1(O)C[C@H]2CN(CCc3c([nH]c4ccccc34)[C@@](C(=O)OC)(c3cc4c(cc3OC)N(C=O)[C@H]3[C@@](O)(C(=O)OC)[C@H](OC(C)=O)[C@]5(CC)C=CCN6CC[C@]43[C@@H]65)C2)C1` [Vincristine, reference compound] was tested, and the “Percent in Cell Cycle Phase >4N” value (1 nM) was 2%, the “Percent in Cell Cycle Phase Apop” value (1 nM) was 6% and the “Percent in Cell Cycle Phase G1” value (1 nM) was 57%. For the same compound, the “Percent in Cell Cycle Phase G2/M” value (1 nM) was 17%, the “Percent in Cell Cycle Phase S” value (1 nM) was 18% and the “Percent in Cell Cycle Phase >4N” value (2 nM) was 2%. For the same compound, the “Percent in Cell Cycle Phase Apop” value (2 nM) was 8%, the “Percent in Cell Cycle Phase G1” value (2 nM) was 55% and the “Percent in Cell Cycle Phase G2/M” value (2 nM) was 18%. The “Percent in Cell Cycle Phase S” value (2 nM) was 18%, the “Percent in Cell Cycle Phase >4N” value (4 nM) was 2% and the “Percent in Cell Cycle Phase Apop” value (4 nM) was 9%. The “Percent in Cell Cycle Phase G1” value (4 nM) was 50%, the “Percent in Cell Cycle Phase G2/M” value (4 nM) was 23% and the “Percent in Cell Cycle Phase S” value (4 nM) was 17%. For the same compound, the “Percent in Cell Cycle Phase >4N” value (6 nM) was 3%, the “Percent in Cell Cycle Phase Apop” value (6 nM) was 11% and the “Percent in Cell Cycle Phase G1” value (6 nM) was 45%. For the same compound, the “Percent in Cell Cycle Phase G2/M” value (6 nM) was 27%, the “Percent in Cell Cycle Phase S” value (6 nM) was 15% and the “Percent in Cell Cycle Phase >4N” value (8 nM) was 3%. The “Percent in Cell Cycle Phase Apop” value (8 nM) was 12%, the “Percent in Cell Cycle Phase G1” value (8 nM) was 40% and the “Percent in Cell Cycle Phase G2/M” value (8 nM) was 32%. For the same compound, the “Percent in Cell Cycle Phase S” value (8 nM) was 14%, the “Percent in Cell Cycle Phase >4N” value (10 nM) was 3% and the “Percent in Cell Cycle Phase Apop” value (10 nM) was 16%. For the same compound, the “Percent in Cell Cycle Phase G1” value (10 nM) was 27%, the “Percent in Cell Cycle Phase G2/M” value (10 nM) was 41% and the “Percent in Cell Cycle Phase S” value (10 nM) was 13%. For the same compound, the “Percent in Cell Cycle Phase >4N” value (15 nM) was 4%, the “Percent in Cell Cycle Phase Apop” value (15 nM) was 19% and the “Percent in Cell Cycle Phase G1” value (15 nM) was 20%. The “Percent in Cell Cycle Phase G2/M” value (15 nM) was 44%, the “Percent in Cell Cycle Phase S” value (15 nM) was 14% and the “Percent in Cell Cycle Phase >4N” value (20 nM) was 4%. The “Percent in Cell Cycle Phase Apop” value (20 nM) was 18%, the “Percent in Cell Cycle Phase G1” value (20 nM) was 15% and the “Percent in Cell Cycle Phase G2/M” value (20 nM) was 51%. The “Percent in Cell Cycle Phase S” value (20 nM) was 12%, the “Percent in Cell Cycle Phase >4N” value (25 nM) was 4% and the “Percent in Cell Cycle Phase Apop” value (25 nM) was 17%. The “Percent in Cell Cycle Phase G1” value (25 nM) was 14%, the “Percent in Cell Cycle Phase G2/M” value (25 nM) was 52% and the “Percent in Cell Cycle Phase S” value (25 nM) was 13%. The “Percent in Cell Cycle Phase >4N” value (30 nM) was 4%, the “Percent in Cell Cycle Phase Apop” value (30 nM) was 19% and the “Percent in Cell Cycle Phase G1” value (30 nM) was 12%. The “Percent in Cell Cycle Phase G2/M” value (30 nM) was 55%, the “Percent in Cell Cycle Phase S” value (30 nM) was 11% and the “Percent in Cell Cycle Phase >4N” value (40 nM) was 4%. The “Percent in Cell Cycle Phase Apop” value (40 nM) was 18%, the “Percent in Cell Cycle Phase G1” value (40 nM) was 8% and the “Percent in Cell Cycle Phase G2/M” value (40 nM) was 57%. For the same compound, the “Percent in Cell Cycle Phase S” value (40 nM) was 13%.
